Converted amounts (≈) assume the structure as drawn.
Tests used:
[1] = Solubility of Nimorazole in water; type: physicochemical
[2] = The Merck Index, 14th Edition; cited from earlier work

solubility [1]: 4910 µg/mL (≈ 21.7 mM)
SMILES: O=[N+]([O-])c1cncn1CCN1CCOCC1 [Nimorazole]
solubility in water [2]: slightly soluble

Source: US8703188B1, “Dispersible tablet” (Azanta A/S, priority 2012, dated 2014)
